According to PMC10253817, “Design, Pharmacological Characterization, and Molecular Docking of Minimalist Peptidomimetic Antagonists of α4β1 Integrin” (International Journal of Molecular Sciences, 2023):

Tests used:
[1] = molecular target: T1, α4β1 integrin (Homo sapiens, UniProt P05556+P13612); assay: α4β1 integrin-mediated Jurkat cell adhesion to VCAM-1; format: cell-based; settings: Jurkat cell adhesion to VCAM-1 (2 μg/mL); antag. = reduced cell adhesion; mean ± SD
T1 construct: Jurkat E6.1 cell line, which endogenously expresses α4β1 integrin; host or cells: Jurkat E6.1
Method: To this purpose, the ability of the best peptidomimetics to modulate cell adhesion mediated by integrins other than α4β1 was evaluated in HL60 cells, mainly expressing the leukocyte integrin αMβ2, and on K562 cells, mainly expressing α5β1, which shares a β1 subunit with the heterodimer α4β1. […] In contrast, 13 was a moderate promoter of cell adhesion mediated by αMβ2 integrin, behaving as an agonist. Regarding α5β1 integrin, none of the peptidomimetics employed were able to modulate K562 cell adhesion, thus being shown to be completely ineffective toward α5β1 integrin. The reference compound DS-70 was ineffective toward both αMβ2 and α5β1 integrins under the same experimental conditions (Table 3).
(§1) The assays were performed as previously described. Briefly, regarding adhesion assays on Jurkat E6.1 or HL-60 cells, black 96-well plates (Corning Costar) were coated overnight at 4 °C with FN or Fg (10 μg/mL) or VCAM-1 (2 μg/mL) in order to investigate α4β1 integrin-mediated cell adhesion. To avoid any kind of unspecific binding, plates were incubated with 100 μL/well of blocking solution (1% BSA in HBSS) for 30 min at 37 °C. Cells were counted, stained with the CellTracker green CMFDA (12.5 μM, 30 min at 37 °C, Life Technologies Italia, Milan, Italy) and after three washes, were preincubated with increasing concentrations of new compounds (10^−10–10^−4 M) or with the vehicle (methanol) for 30 min at 37 °C.
(§2) Then, cells were plated (500,000/well) on coated wells and incubated for 30 min at 37 °C. Afterwards nonadherent cells were removed via washing with a blocking solution, and the remaining adhered cells were lysed with 0.5% Triton X-100 in PBS (30 min at 4 °C). Green fluorescence was measured (Ex485 nm/Em535 nm) using an EnSpire Multimode Plate Reader (PerkinElmer, Waltham, MA, USA).
(§3) In both types of adhesion assay, the number of adherent cells was determined via comparison with a standard curve made in the same plate. Experiments were carried out in quadruplicate and repeated at least three times. Data analysis and EC50 or IC50 values were calculated using GraphPad Prism 9.5.1 (GraphPad Software, San Diego, CA, USA).

[2] = molecular target: T1, α4β1 integrin; assay: α4β1 integrin-mediated Jurkat E6.1 cell adhesion to FN; format: cell-based; settings: Jurkat E6.1 cell adhesion to FN (10 μg/mL); antag. = reduced cell adhesion; mean ± SD
Method: To investigate the ability of the new peptides to modulate integrin-mediated cell adhesion, we employed cell adhesion assays using a Jurkat E6.1 cell line, which endogenously expresses α4β1 integrin and the natural ligand FN. […] On the contrary, ligands able to increase cell adhesion are defined as agonists.
as §1, §2, §3

T1 sequence (P13612 34-1032): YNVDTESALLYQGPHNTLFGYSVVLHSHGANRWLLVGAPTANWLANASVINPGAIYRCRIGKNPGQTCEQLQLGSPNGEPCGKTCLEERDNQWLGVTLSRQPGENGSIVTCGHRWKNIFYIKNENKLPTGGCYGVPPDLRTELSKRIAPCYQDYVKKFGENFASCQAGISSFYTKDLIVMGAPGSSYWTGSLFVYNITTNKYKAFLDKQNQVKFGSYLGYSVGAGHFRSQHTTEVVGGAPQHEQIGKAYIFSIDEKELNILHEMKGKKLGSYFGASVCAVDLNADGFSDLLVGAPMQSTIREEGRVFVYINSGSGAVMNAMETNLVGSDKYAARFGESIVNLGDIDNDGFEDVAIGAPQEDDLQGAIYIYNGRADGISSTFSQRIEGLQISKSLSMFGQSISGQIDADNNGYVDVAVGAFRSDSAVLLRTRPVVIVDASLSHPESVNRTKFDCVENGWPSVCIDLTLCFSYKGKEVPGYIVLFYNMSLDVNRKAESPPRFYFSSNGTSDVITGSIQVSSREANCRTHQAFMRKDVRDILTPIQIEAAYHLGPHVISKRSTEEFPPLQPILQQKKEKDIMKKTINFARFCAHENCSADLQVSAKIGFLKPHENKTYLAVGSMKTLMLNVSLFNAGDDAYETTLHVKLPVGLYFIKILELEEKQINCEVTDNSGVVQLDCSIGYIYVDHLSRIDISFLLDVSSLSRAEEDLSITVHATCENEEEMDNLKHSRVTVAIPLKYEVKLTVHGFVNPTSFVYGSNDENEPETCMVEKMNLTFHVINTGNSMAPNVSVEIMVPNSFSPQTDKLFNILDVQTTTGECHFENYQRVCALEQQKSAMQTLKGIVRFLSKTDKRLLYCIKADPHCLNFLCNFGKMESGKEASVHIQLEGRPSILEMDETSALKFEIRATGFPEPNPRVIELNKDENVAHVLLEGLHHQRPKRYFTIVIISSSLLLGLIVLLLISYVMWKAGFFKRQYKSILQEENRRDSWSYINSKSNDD
T1 sequence (P05556 21-798): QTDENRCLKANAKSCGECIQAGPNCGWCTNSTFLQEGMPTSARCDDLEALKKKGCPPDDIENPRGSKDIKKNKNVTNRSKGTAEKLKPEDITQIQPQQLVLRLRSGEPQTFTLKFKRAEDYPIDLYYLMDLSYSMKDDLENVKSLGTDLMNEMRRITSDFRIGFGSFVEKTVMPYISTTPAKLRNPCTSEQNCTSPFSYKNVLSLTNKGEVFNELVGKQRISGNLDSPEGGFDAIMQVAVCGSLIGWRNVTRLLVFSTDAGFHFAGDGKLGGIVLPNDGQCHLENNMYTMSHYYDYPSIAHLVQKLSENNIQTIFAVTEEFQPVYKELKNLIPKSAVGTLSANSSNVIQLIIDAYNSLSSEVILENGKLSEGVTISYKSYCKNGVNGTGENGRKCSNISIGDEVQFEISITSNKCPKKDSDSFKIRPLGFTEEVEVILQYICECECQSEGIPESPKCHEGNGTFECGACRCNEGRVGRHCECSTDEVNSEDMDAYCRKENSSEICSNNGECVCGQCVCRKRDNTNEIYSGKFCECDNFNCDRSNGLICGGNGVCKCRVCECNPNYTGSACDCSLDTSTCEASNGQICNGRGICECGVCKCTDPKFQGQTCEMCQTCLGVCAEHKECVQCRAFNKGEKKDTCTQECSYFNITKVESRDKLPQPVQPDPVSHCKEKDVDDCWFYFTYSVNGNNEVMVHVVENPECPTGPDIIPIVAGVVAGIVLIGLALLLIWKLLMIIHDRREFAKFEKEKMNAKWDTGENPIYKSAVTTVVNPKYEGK

Compound	IC50 [1]	IC50 [2]
CCCNC(=O)[C@@H](CC(=O)NCC(=O)O)NC(=O)Cc1ccc(NC(=O)Nc2ccccc2C)cc1 [compound 8]	54 nM	
Cc1ccccc1NC(=O)Nc1ccc(CNC(=O)C[C@@H](C)NC(=O)CC(=O)O)cc1 [compound 13]	879 nM	416 nM
CC(=O)N[C@@H](CNC(=O)Cc1ccc(NC(=O)Nc2ccccc2C)cc1)C(=O)NCC(=O)O [compound 3]	975 nM	
